Laboratory results reported in patent US7846434B2, “Materials and methods for improved immunoglycoproteins” (Trubion Pharmaceuticals, Inc., priority 2006, dated 2010).

T1: CD37 cell surface receptor (Homo sapiens, UniProt P11049)
T1 construct: Human PBMCs are isolated over LSM density gradients and incubated with unconjugated TRU-016; endogenous in cells; host or cells: human PBMCs, gated for CD19+ B lymphocytes
T1 sequence (P11049 1-281): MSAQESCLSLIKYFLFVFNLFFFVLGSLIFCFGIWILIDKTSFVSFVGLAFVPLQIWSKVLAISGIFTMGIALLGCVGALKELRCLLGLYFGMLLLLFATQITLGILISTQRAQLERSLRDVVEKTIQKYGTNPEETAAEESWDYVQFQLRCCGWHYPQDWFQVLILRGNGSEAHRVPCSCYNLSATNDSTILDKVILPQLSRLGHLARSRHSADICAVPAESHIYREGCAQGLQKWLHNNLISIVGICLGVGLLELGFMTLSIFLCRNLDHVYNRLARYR

B1: Kifu TRU-016: TRU-016 produced by CHO cells treated with 10 μM kifenunsine (antibody, chains of the INN, looked up, V domains shown)
VH: EVQLVQSGAEVKKPGESLKISCKGSGYSFTGYNMNWVRQMPGKGLEWMGNIDPYYGGTTYNRKFKGQVTISADKSISTAYLQWSSLKASDTAMYYCARSVGPFDSWGQGTLVTVSS
VL: EIVLTQSPATLSLSPGERATLSCRASENVYSYLAWYQQKPGQAPRLLIYFAKTLAEGIPARFSGSGSGTDFTLTISSLEPEDFAVYYCQHHSDNPWTFGQGTKVEIK
modifications: altered glycosylation (kifunensine-treated CHO)
notes: TRU-016 produced by CHO cells treated with 10 μM kifenunsine

Assays:
[1] = test system: Ramos cells; assay: Ramos tumor model in nude mice; format: in vivo; settings: for Median Survival Time: 200 μg i.v. on days 0, 2, 4, 6 and 8
Protocol: Nude mice are administered 5×10^6 Ramos cells subcutaneously on day 0 and injected intravenously with 200 μg control human IgG or TRU-016 test protein produced by CHO cells treated with 200 μM DMJ, 10 μM kifenunsine or 200 μM castanospermine on days 0, 2, 4, 6, and 8. Mice typically develop tumors within 6 days and die shortly thereafter. Tumors are measured three times weekly with digital calipers and LabCat software, and tumor volume is calculated as […]. Body weight is also determined once a week.
Mice are sacrificed when the tumor reaches 1500 mm^3 in size (1200 mm^3 on Fridays). Mice are also sacrificed if ulceration of a tumor occurs, the tumor inhibits the mobility of animal, or if weight loss equals or exceeds 20%.

[2] = test system: CD37-expressing Daudi cancer B-cell line; assay: ADCC, 51Cr-labeled Daudi target cells with human PBL effector cells; format: cell-based; settings: treated with CS over a range of 100 μM-800 μM final concentration
Protocol: TRU-016 produced as described in Example 8 is incubated with the CD37-expressing Daudi cancer B-cell line in conjunction with primary human peripheral blood lymphocytes (PBL's) effector cells to assess ADCC activity.
Daudi target cells (5×10^6) are added to a 15 ml conical tube and then centrifuged at 250×g for 5 minutes at 20° C. and the supernatant removed. The cell pellet is resuspended by the addition of 0.3 mCi Chromium-51 (^51Cr, GE Healthcare, CJ51). The cells are incubated for 75 minutes at 37° C. with 5% CO2, allowing the cells to incorporate the radioactive isotope. The cells are then washed three times to remove any unincorporated ^51 Cr. This is done by adding 10 mL of complete media—IMDM (Gibco) with 10% FBS (Gibco)—to the tube, centrifuging at 250×g for 5 minutes at 20° C. followed by removal of supernatant. The final resuspension is in 11.5 mL of complete media. TRU-016 is diluted in complete media, at concentrations that are able to generate maximal to background levels of cell lysis (500 ng/mL-0.005 ng/mL). These titrations are plated out, 50 μL/well, in a round bottom 96 well plate. The ^51Cr labeled target cells are added to the dose titrations of TRU-016 at 50 μL/well and the control wells (control media without TRU-016). PBL's are isolated from fresh heparinized whole blood by density gradient centrifugation using Lymphocyte Separation Media as per protocol (LSM, MP Biomedical, 50494/36427). […] The assay is incubated for 4.5-5 hours at 37° C., 5% CO2. The effector cells lyse the target cells relative to the TRU-016 concentration, releasing a proportional amount of ^51Cr into the assay supernatant. Following the incubation the plate is centrifuged at 250×g for 3 minutes at 20° C. A 25 μL volume of cell-free supernatant is removed from all wells to a scintillation plate (Perkin Elmer 6005185) and dried overnight. The amount of ^51Cr isotope in each well of the scintillation plate is measured using a Topcount plate reader (Perkin Elmer, C9904VO). The data are expressed as percent of specific release. Specific release is calculated as: (Sample value−Spontaneous value)/(Maximum value−Spontaneous value)*100% Spontaneous=amount of ^51Cr released from target cell only Maximum release=amount of ^51Cr released from targets treated with detergent lysing agent Background Control=amount of ^51Cr released from target cells+effector cells(No TRU-016)
A dose response is generated and fit to a 4-parameter logistic curve using SoftMax Pro software (Molecular Devices, ver 5.0.1). Titrations of TRU-016 are utilized to create dose response curves of test and reference material for comparison. The EC50 values for the treated articles are compared to the untreated control (no CS) to determine the percent increase in ADCC activity.

[3] = target: T1, CD37 cell surface receptor; assay: TRU-016 binding to human PBMC B lymphocytes by two-color flow cytometry
Protocol: Experiments may be performed to confirm that the binding specificity of the parent antibody to the CD37 cell surface receptor is preserved in TRU-016. Human PBMCs are isolated over LSM density gradients and incubated with unconjugated TRU-016 and PE-conjugated anti-human CD19. Cells are washed and incubated with 1:100 FITC GAH IgG (Fc specific) for 45 minutes on ice. Cells are washed and analyzed by two-color flow cytometry on a FACsCalibur instrument using Cell Quest software. Cells are gated for B lymphocytes or non-B lymphocytes by CD19 staining.

[4] = test system: Ramos B cells; assay: CDC, Ramos B cells with human serum, propidium iodide; format: cell-based; settings: TRU-016 from CHO cells cultured with 200 μM DMJ, 10 μM kifenunsine or 200 μM castanospermine
Protocol: To determine the CDC activity of TRU-016 purified protein produced according to Example 2, Ramos B cells were suspended in Iscoves (Gibco/Invitrogen, Grand Island, N.Y.) at 5×10^5 cells/well in 75 μl. TRU-016 (75 μl) were added to the cells at twice the concentrations indicated. Binding reactions were allowed to proceed for 45 minutes prior to centrifugation and washing in serum-free Iscoves. Cells were resuspended in Iscoves with human serum (containing complement) at various concentrations. The cells were incubated 60 minutes at 37° C. Cells were washed by centrifugation and resuspended in staining media with 0.5 μg/ml propidium iodide. Samples were incubated 15 minutes at room temperature in the dark prior to analysis by flow cytometry using a FACsCalibur and CellQuest software (Becton Dickinson).

[5] = test system: CD16; assay: CD16 assays on sera of mice administered TRU-016; format: binding; settings: sera at 48, 72, 96 and 192 hours after administration of carbohydrate-modified TRU-016
[6] = TRU-016 from CHO cells treated with 200 μM DMJ, 10 μM kifenunsine or 200 μM castanospermine

| Molecule | Median Survival Time [1] | ADCC activity relative to untreated TRU-016 [2] | TRU-016 concentration at saturation of FITC signal on B lymphocytes ([3]; CD19 positive gate) | mean fluorescence intensity (MFI) at saturation ([3]; CD19 positive gate) | staining of the non-B lymphocyte population ([3]; non-B lymphocyte gate) | CDC versus protein produced by untreated CHO cells [4] | mean survival time [1, 6] | tumor volume [1, 6] | CD16 binding activity of sera containing TRU-016 [5] |
| --- | --- | --- | --- | --- | --- | --- | --- | --- | --- |
| CS TRU-016: TRU-016 produced by CHO cells treated with 200 μM castanospermine | 13 days | – | – | – | – | – | – | – | – |
| TRU-016: [G28-1 scFv VH11S (SSC-P)H WCH2 WCH3] recombinant single chain protein (SMIP) that binds to the CD37 antigen; SEQ ID NO: 2 | – | significantly increased | approximately 1 μg/mL | ~1000 | detectable, but very low | similar | increase mean survival time | reduce tumor volume | retained its increased CD16 binding activity |
| B1 | 10 days | – | – | – | – | – | – | – | – |
